Laboratory results published in patent US10954228B2 (NATIONAL INSTITUTES OF HEALTH, UNITED STATES DEPARTMENT OF …, priority 2016, dated 2021).

Columns and labels:
Human LDHA = Human LDHA (Homo sapiens (Human), UniProt P00338); test: human LDHA primary biochemical assay; conditions: biochemical LDHA inhibitory activity, assay of Example 1; activity level classes defined in nM
How it was run: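 Human LDHA at 2 nM with 0.06 mM NADH and 0.2 mM sodium pyruvate in 200 mM Tris HCl pH 7.4, 100 μM EDTA, 0.01% TWEEN-20 (final). NADH consumption coupled to resazurin/diaphorase (0.037 mM; 0.133 mg/mL); inhibition read by fluorescence.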

MiaPaCa2 cells = test: cell-based HT lactate assay by colorimetric/fluorometric detection (cellular inhibition of lactate production); conditions: Homo sapiens, MIA PaCa-2, assay of Example 6
Description: This example describes a cell-based metabolite assay by colorimetric/fluorometric detection employed in the characterization of a compound of formula (I) in an embodiment of the invention.
Cell-based HT Lactate assay is a miniaturized Biovision Lactate Colorimetric/Fluorometric Assay Kit (Cat #K607-100). The assay is roughly a 3.5 hour assay run in a 1536 plate format. Cell number optimization should be run for each cell line to achieve an optimal number in which lactate production equals roughly 90% of the standard curve range. Cell number per well optimization has been performed with the following cell lines: MiaPaCa2—500 cells/well, SNU398—500 cells/well, and P493—500 cells/well.

For `CC1CC=C(c2cc(-c3nn(-c4nc(C(=O)O)cs4)c(CC4CC4)c3Cc3ccc(S(N)(=O)=O)c(F)c3)ccc2F)CC1` (centres unmarked) [Compound 101, 2-(5-(cyclopropylmethyl)-3-(6-fluoro-4′-methyl-2′,3′,4′,5′-tetrahydro-[1,1′-biphenyl]-3-yl)-4-(3-fluoro-4-sulfamoylbenzyl)-1H-pyrazol-1-yl)thiazole-4-carboxylic acid], the IC50 (Human LDHA) was < 100 nM and the IC50 (MiaPaCa2 cells) was < 1000 nM.
For `NS(=O)(=O)c1ccc(Cc2c(-c3ccc(F)c(C4=CCC(C(F)(F)F)CC4)c3)nn(-c3nc(C(=O)O)cs3)c2CC2CC2)cc1F` (centres unmarked) [Compound 102, 2-(5-(cyclopropylmethyl)-3-(6-fluoro-4′-(trifluoromethyl)-2′,3′,4′,5′-tetrahydro-[1,1′-biphenyl]-3-yl)-4-(3-fluoro-4-sulfamoylbenzyl)-1H-pyrazol-1-yl)thiazole-4-carboxylic acid], the IC50 (Human LDHA) was < 100 nM and the IC50 (MiaPaCa2 cells) was < 1000 nM.
For `CC1CCCC=C1c1cc(-c2nn(-c3nc(C(=O)O)cs3)c(CC3CC3)c2Cc2ccc(S(N)(=O)=O)c(F)c2)ccc1F` (centres unmarked) [Compound 103, 2-(5-(cyclopropylmethyl)-3-(6-fluoro-2′-methyl-2′,3′,4′,5′-tetrahydro-[1,1′-biphenyl]-3-yl)-4-(3-fluoro-4-sulfamoylbenzyl)-1H-pyrazol-1-yl)thiazole-4-carboxylic acid], the IC50 (Human LDHA) was < 100 nM and the IC50 (MiaPaCa2 cells) was < 1000 nM.
For `COC1CC=C(c2cc(-c3nn(-c4nc(C(=O)O)cs4)c(CC4CC4)c3Cc3ccc(S(N)(=O)=O)c(F)c3)ccc2F)CC1` (centres unmarked) [Compound 104, 2-(5-(cyclopropylmethyl)-3-(6-fluoro-4′-methoxy-2′,3′,4′,5′-tetrahydro-[1,1′-biphenyl]-3-yl)-4-(3-fluoro-4-sulfamoylbenzyl)-1H-pyrazol-1-yl) thiazole-4-carboxylic acid], the IC50 (Human LDHA) was < 100 nM and the IC50 (MiaPaCa2 cells) was < 1000 nM.
For `NS(=O)(=O)c1ccc(Cc2c(-c3ccc(F)c(C4=Cc5ccccc5C4)c3)nn(-c3nc(C(=O)O)cs3)c2CC2CC2)cc1F` [Compound 105, 2-(5-(cyclopropylmethyl)-3-(4-fluoro-3-(1H-inden-2-yl)phenyl)-4-(3-fluoro-4-sulfamoylbenzyl)-1H-pyrazol-1-yl)thiazole-4-carboxylic acid], the IC50 (Human LDHA) was < 100 nM and the IC50 (MiaPaCa2 cells) was < 1000 nM.
With `CC1(C)CC=C(c2cc(-c3nn(-c4nc(C(=O)O)cs4)c(CC4CC4)c3Cc3ccc(S(N)(=O)=O)c(F)c3)ccc2F)CC1` [Compound 106, 2-(5-(cyclopropylmethyl)-3-(6-fluoro-4′,4′-dimethyl-2′,3′,4′,5′-tetrahydro-[1,1′-biphenyl]-3-yl)-4-(3-fluoro-4-sulfamoylbenzyl)-1H-pyrazol-1-yl) thiazole-4-carboxylic acid] the IC50 (Human LDHA) was < 100 nM and the IC50 (MiaPaCa2 cells) was < 1000 nM.
In the case of `NS(=O)(=O)c1ccc(Cc2c(-c3ccc(F)c(C4=CCC(F)(F)CC4)c3)nn(-c3nc(C(=O)O)cs3)c2CC2CC2)cc1F` [Compound 107, 2-(5-(cyclopropylmethyl)-4-(3-fluoro-4-sulfamoylbenzyl)-3-(4′,4′,6-trifluoro-2′,3′,4′,5′-tetrahydro-[1,1′-biphenyl]-3-yl)-1H-pyrazol-1-yl)thiazole-4-carboxylic acid], the IC50 (Human LDHA) is reported as < 100 nM and the IC50 (MiaPaCa2 cells) is reported as < 1000 nM.
For `NS(=O)(=O)c1ccc(Cc2c(-c3ccc(F)c(C4=CCC5(CC4)CC5)c3)nn(-c3nc(C(=O)O)cs3)c2CC2CC2)cc1F` [Compound 108, 2-(5-(cyclopropylmethyl)-3-(4-fluoro-3-(spiro[2.5]oct-5-en-6-yl)phenyl)-4-(3-fluoro-4-sulfamoylbenzyl)-1H-pyrazol-1-yl)thiazole-4-carboxylic acid], the IC50 (Human LDHA) was < 100 nM and the IC50 (MiaPaCa2 cells) was < 1000 nM.
For `CCC#Cc1cc(-c2nn(-c3nc(C(=O)O)cs3)c(CC3CC3)c2Cc2ccc([S+](N)(=O)[O-])c(F)c2)ccc1F` [Compound 109, 2-(3-(3-(but-1-yn-1-yl)-4-fluorophenyl)-5-(cyclopropylmethyl)-4-(3-fluoro-4-sulfamoylbenzyl)-1H-pyrazol-1-yl)thiazole-4-carboxylic acid], the IC50 (MiaPaCa2 cells) was < 1000 nM.
`CC(C)(C)c1ccc(C#Cc2cc(-c3nn(-c4nc(C(=O)O)cs4)c(CC4CC4)c3Cc3ccc(S(N)(=O)=O)c(F)c3)ccc2F)s1` [Compound 110, 2-(3-(3-((5-(tert-butyl)thiophen-2-yl)ethynyl)-4-fluorophenyl)-5-(cyclopropylmethyl)-4-(3-fluoro-4-sulfamoylbenzyl)-1H-pyrazol-1-yl)thiazole-4-carboxylic acid] was tested, and the IC50 (Human LDHA) was 100 to 1000 nM and the IC50 (MiaPaCa2 cells) was < 1000 nM.
For `CC(C)c1ccc(-c2cc(-c3nn(-c4nc(C(=O)O)cs4)c(CC4CC4)c3Cc3ccc(S(N)(=O)=O)c(F)c3)ccc2F)cc1` [Compound 142, 2-(5-(cyclopropylmethyl)-3-(6-fluoro-4′-isopropyl-[1,1′-biphenyl]-3-yl)-4-(3-fluoro-4-sulfamoylbenzyl)-1H-pyrazol-1-yl)thiazole-4-carboxylic acid], the IC50 (MiaPaCa2 cells) was < 1000 nM.
Work on `Cc1cc(C#Cc2cccc(-c3nn(-c4nc(C(=O)O)cs4)c(CCC4CC4)c3Cc3ccc(S(N)(=O)=O)c(F)c3)c2)c(C)s1` [Compound 238, 2-(5-(2-cyclopropylethyl)-3-(3-((2,5-dimethylthiophen-3-yl)ethynyl)phenyl)-4-(3-fluoro-4-sulfamoylbenzyl)-1H-pyrazol-1-yl)thiazole-4-carboxylic acid] yielded an IC50 (Human LDHA) of 100 to 1000 nM.
For `Cc1cc(C#Cc2cccc(-c3nn(-c4nc(C(=O)O)cs4)c(CCC4CC4)c3Cc3ccc(S(N)(=O)=O)c(F)c3)c2)cs1` [Compound 239, 2-(5-(2-cyclopropylethyl)-4-(3-fluoro-4-sulfamoylbenzyl)-3-(3-((5-methylthiophen-3-yl)ethynyl)phenyl)-1H-pyrazol-1-yl)thiazole-4-carboxylic acid], the IC50 (Human LDHA) was 100 to 1000 nM.
`Cc1cc(C#Cc2cccc(-c3nn(-c4nc(C(=O)O)cs4)c(CC4CC4)c3Cc3ccc(S(N)(=O)=O)c(F)c3)c2)cs1` [Compound 240, 2-(5-(cyclopropylmethyl)-4-(3-fluoro-4-sulfamoylbenzyl)-3-(3-((5-methylthiophen-3-yl)ethynyl)phenyl)-1H-pyrazol-1-yl)thiazole-4-carboxylic acid] was tested, and the IC50 (Human LDHA) was < 100 nM.
Work on `Cc1cc(C#Cc2cccc(-c3nn(-c4nc(C(=O)O)cs4)c(CC4CC4)c3Cc3ccc(S(N)(=O)=O)c(F)c3)c2)c(C)s1` [Compound 241, 2-(5-(cyclopropylmethyl)-3-(3-((2,5-dimethylthiophen-3-yl)ethynyl)phenyl)-4-(3-fluoro-4-sulfamoylbenzyl)-1H-pyrazol-1-yl)thiazole-4-carboxylic acid] yielded an IC50 (Human LDHA) of 100 to 1000 nM.
`Cc1ccc(C(=O)Cc2cccc(-c3nn(-c4nc(C(=O)O)cs4)c(CC4CC4)c3Cc3ccc(S(N)(=O)=O)c(F)c3)c2)s1` [Compound 242, 2-(5-(cyclopropylmethyl)-4-(3-fluoro-4-sulfamoylbenzyl)-3-(3-(2-(5-methylthiophen-2-yl)-2-oxoethyl)phenyl)-1H-pyrazol-1-yl)thiazole-4-carboxylic acid] was tested, and the IC50 (Human LDHA) was < 100 nM.
In the case of `Cc1nc(C#Cc2cccc(-c3nn(-c4nc(C(=O)O)cs4)c(CCC4CC4)c3Cc3ccc(S(N)(=O)=O)c(F)c3)c2)cs1` [Compound 243, 2-(5-(2-cyclopropylethyl)-4-(3-fluoro-4-sulfamoylbenzyl)-3-(3-((2-methylthiazol-4-yl)ethynyl)phenyl)-1H-pyrazol-1-yl)thiazole-4-carboxylic acid], the IC50 (Human LDHA) is reported as < 100 nM.
Molecule `NS(=O)(=O)c1ccc(Cc2c(-c3cccc(C#Cc4ccc(C5CC5)s4)c3)nn(-c3nc(C(=O)O)cs3)c2CCC2CC2)cc1F` [Compound 244, 2-(5-(2-cyclopropylethyl)-3-(3-((5-cyclopropylthiophen-2-yl)ethynyl)phenyl)-4-(3-fluoro-4-sulfamoylbenzyl)-1H-pyrazol-1-yl)thiazole-4-carboxylic acid] has an IC50 (Human LDHA) of 100 to 1000 nM.
`NS(=O)(=O)c1ccc(Cc2c(-c3cccc(C#Cc4ccc(C5CCC5)s4)c3)nn(-c3nc(C(=O)O)cs3)c2CC2CC2)cc1F` [Compound 245, 2-(3-(3-((5-cyclobutylthiophen-2-yl)ethynyl)phenyl)-5-(cyclopropylmethyl)-4-(3-fluoro-4-sulfamoylbenzyl)-1H-pyrazol-1-yl)thiazole-4-carboxylic acid] gave an IC50 (Human LDHA) of 100 to 1000 nM.
`NS(=O)(=O)c1ccc(Cc2c(-c3cccc(C#Cc4ccc(C5CCC5)s4)c3)nn(-c3nc(C(=O)O)cs3)c2CCC2CC2)cc1F` [Compound 246, 2-(3-(3-((5-cyclobutylthiophen-2-yl)ethynyl)phenyl)-5-(2-cyclopropylethyl)-4-(3-fluoro-4-sulfamoylbenzyl)-1H-pyrazol-1-yl)thiazole-4-carboxylic acid] showed an IC50 (Human LDHA) of 100 to 1000 nM.
With `Cc1ccc(C#Cc2cccc(-c3nn(-c4nc(C(=O)O)co4)c(CC4CC4)c3Cc3ccc(S(N)(=O)=O)c(F)c3)c2)s1` [Compound 247, 2-(5-(cyclopropylmethyl)-4-(3-fluoro-4-sulfamoylbenzyl)-3-(3-((5-methylthiophen-2-yl)ethynyl)phenyl)-1H-pyrazol-1-yl)oxazole-4-carboxylic acid] the IC50 (Human LDHA) was < 100 nM.
`Cc1ccc(C#Cc2cccc(-c3nn(-c4nc(C(=O)O)cs4)c(CCCC4CC4)c3Cc3ccc(S(N)(=O)=O)c(F)c3)c2)s1` [Compound 248, 2-(5-(3-cyclopropylpropyl)-4-(3-fluoro-4-sulfamoylbenzyl)-3-(3-((5-methylthiophen-2-yl)ethynyl)phenyl)-1H-pyrazol-1-yl)thiazole-4-carboxylic acid] showed an IC50 (Human LDHA) of 100 to 1000 nM.
With `Cc1ccc(C#Cc2cc(-c3nn(-c4nc(C(=O)O)cs4)c(CC4CC4)c3Cc3ccc(S(N)(=O)=O)c(F)c3)ccc2F)s1` [Compound 249, 2-(5-(cyclopropylmethyl)-3-(4-fluoro-3-((5-methylthiophen-2-yl)ethynyl)phenyl)-4-(3-fluoro-4-sulfamoylbenzyl)-1H-pyrazol-1-yl)thiazole-4-carboxylic acid] the IC50 (Human LDHA) was < 100 nM.
